Measurements as given in PubChem BioAssay (NCI).
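Values below derive from 48-hour exposures of cells grown in 96-well plates, with endpoints linearly interpolated between the two concentrations bracketing the appropriate inhibition level. GI50 marks 50% less growth. TGI denotes the concentration required for complete inhibition of growth.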

What follows are compounds tested on MDA-MB-468 breast (assay: DTP human tumour cell line panel, 48 h).

Compound | GI50 | TGI
N=C1c2nc3n(c2C(=O)c2nc4n(c21)CCCC4)CCCC3 | 8.95 µM | 53.4 µM
CC([C@H]1CCC2C3CCC4C[C@@H](NC=O)CC[C@]4(C)C3CC[C@@]21C)N(C)C (stereo not given in full) | 1.42 µM | 3.73 µM
Cc1cc(C)c(O)c(CNCCCCCCNCc2cc(C)cc(C)c2O)c1 | 1.6 µM | 3.12 µM
c1ccc(C(=NNc2nc3ccccc3o2)c2ccccn2)nc1 | 0.0285 µM | 0.196 µM
CC(=O)Nc1cccc(-n2cnc3cc(-c4ccc(O)cc4)ccc32)c1 | 0.259 µM | 0.65 µM
C/C=C(\C)C(=O)N[C@H]1[C@@H](OC(C)=O)C[C@]2(C)C3CC[C@@]4(C)C(CC[C@@H]4C(C)N(C)C)C3CCC2[C@H]1O (stereo not given in full) | 2.02 µM | 9.67 µM
CCCCCCCCCCC(C[N+](C)(C)C/C=C/c1ccccc1)C(O)c1ccccc1 (stereo not given) | 1.37 µM | 3.06 µM
O=C(Nc1ccc(-n2cc(-c3ccncc3)c(-c3ccc(Cl)c(O)c3)n2)cc1)Nc1cc(C(F)(F)F)cc(C(F)(F)F)c1 | 1.79 µM | 5.04 µM
CCCCCNC(=O)[C@@H]1CCCN2C(=O)CC[C@H](NC(=O)[C@H](Cc3ccc(OP(=O)(O)O)cc3)NC(C)=O)C(=O)N12 | > 25 µM | > 25 µM
C=C1CC[C@@]2(C#N)[C@H]3[C@H](CC[C@@H]2C)[C@@H](C)C[C@@H](CC(C)(C)C#N)[C@H]13 | 2.79 µM | 25.9 µM
O=[N+]([O-])c1ccc(-c2nc(N(CCO)CCO)c3ccccc3n2)o1 | 0.0553 µM | 0.195 µM
COc1cc(NC(=O)c2cc(OC)c3ccn(C)c3c2)cc2c1C[C@]1(C)CC[C@@H](O)C(C)(C)[C@H]1O2 | 6.61 µM | > 100 µM
CC1(C)NCCC[C@]2(C)[C@H]3C=CC4=C5C[C@](C)(CO)CC[C@]5(C)CC[C@@]4(C)[C@]3(C)CC[C@@H]12 | 10.4 µM | 24 µM
CCN(CC)CCOc1ccc(Nc2ncc3cc(-c4ccc(O)cc4)c(=O)n(C)c3n2)cc1 | 3.9 µM | 24.2 µM
CCC1=C[C@@H]2CN(C1)Cc1c([nH]c3ccccc13)[C@@](C(=O)OC)(c1cc3c(cc1OC)N(C=O)[C@H]1[C@@](O)(C(=O)OC)[C@H](OC(C)=O)[C@]4(CC)[C@@H]5C[C@@H]5CN5CC[C@]31[C@@H]54)C2 | < 0.000625 µM | > 6.25 µM
COc1ccc2c(c1)nc(N)c1c3cc(OC)c(OC)cc3cn21 | 0.0339 µM | 12.5 µM
Cc1ccccc1CN1CC2=C(CCN(Cc3ccccc3)C2=O)N2CCN=C12 | 0.773 µM | 6.83 µM

Compound | GI50 | TGI
CCCc1ccc(S(=O)(=O)N[C@H]2CC[C@H]3[C@@H]4CCc5cc(O)ccc5[C@H]4CC[C@]23C)cc1 | 2.32 µM | 9.51 µM
O=C(Nc1ccc(-n2cc(-c3ccncc3)c(-c3ccc(O)c(Cl)c3)n2)cc1)c1cc(Cl)cc(Cl)c1 | 3.17 µM | > 32.5 µM
CC(=O)Nc1nc(SCc2ccccc2)c2ncn(C(C)=O)c2n1 | 24.8 µM | > 100 µM
O=C(N/N=C\c1ccc(F)cc1)c1ccc2nc(-c3ccc(Br)cc3)[nH]c2c1 | 1.98 µM | 3.99 µM
Nc1ccc(C(=O)c2ccc(N)c(Br)c2)cc1Br | 0.248 µM | 0.709 µM
c1ccc2[nH]c(SSc3nc4ncncc4[nH]3)nc2c1 | 0.232 µM | > 76.5 µM
COc1ccc(/C=C2\CN(C(=O)C(Cl)Cl)C/C(=C\c3ccc(OC)c(OC)c3)C2=O)cc1OC | 0.224 µM | 0.621 µM
Nc1nc(Nc2ccc3c(c2)CC[C@@H](N2CCCC2)CC3)nn1-c1cc2c(nn1)-c1ccccc1CCC2 | 1.75 µM | 3.39 µM
CCN1C(=O)N(CC)C2C1NN=c1s/c(=C3\C(=O)N(CC(C)C)c4ccccc43)c(=O)n12 (stereo not given) | 0.351 µM | 15.9 µM
CCCCCCCCCNCCCCCCCCC | 1.77 µM | 3.22 µM
O=C(NC1CC1)c1ccc(-c2nc3ccc4[nH]ncc4c3c3c2CCCC3)cc1 | 1.5 µM | 7.14 µM
COc1ccc(/C=C\c2cc(OC)c(OC)c(OC)c2)cc1OC(=O)C(N)CCC(=O)O (stereo not given) |  | > 100 µM
COc1cc(Cl)cc(-c2nn(C(=O)NCCN3CCN(C)CC3)cc2-c2ccncc2)c1 | 10.5 µM | 49.9 µM
Fc1ccc(Oc2nccc(-c3c(-c4ccc(F)cc4)ncn3C3CCNCC3)n2)cc1 | 4.7 µM | > 24 µM
COc1c(C)c2c(c(O)c1C/C=C(\C)CCC(=O)OCCN1CCOCC1)C(=O)OC2 | 0.421 µM | > 100 µM
COc1ccccc1N1CCN(C2=NN=C(c3cccc(Cl)c3)c3ccccc3C2)CC1 | 0.382 µM | > 100 µM
